Literature values, collected in patent publication US20070232597A1, “Compounds, Compositions, and Methods” (priority 2003, published 2007).

Test system: A549 cells
Settings: data provided by National Cancer Institute, Developmental Therapeutic Program

Row | Compound | GI50 [µM]
1 | O=c1[nH]cc(F)c(=O)[nH]1 [5-fluorouracil] | 1
2 | COc1cccc2c1C(=O)c1c(O)c3c(c(O)c1C2=O)C[C@@](O)(C(=O)CO)C[C@@H]3O[C@H]1C[C@H](N)[C@H](O)[C@H](C)O1 [doxorubicin] | 0.063
3 | NC(=O)NO [hydroxyurea] | 500
4 | CC(=O)O[C@H]1C(=O)[C@@]2(C)[C@H]([C@H](OC(=O)c3ccccc3)[C@]3(O)C[C@H](OC(=O)[C@H](O)[C@@H](NC(=O)c4ccccc4)c4ccccc4)C(C)=C1C3(C)C)[C@]1(OC(C)=O)CO[C@@H]1C[C@@H]2O [paclitaxel] | 0.004
